Measurements as given in article PMC9583845, “Characterization of the chicken melanocortin 5 receptor and its potential role in regulating hepatic glucolipid metabolism” (Frontiers in Physiology, 2022).

Experiments:
[1] = system: FASN mRNA, primary chicken hepatocytes; assay: FASN mRNA in primary chicken hepatocytes, RT-qPCR; type: cell-based; settings: 0.1–100 nM, 6 h, N = 4, Figure 8H, listed as not decreased
Protocol: (§1) To evaluate the effect of ACTH1-39 on chicken liver, the chicken hepatocytes were prepared and maintained as a monolayer culture. Briefly, one-month-old male chicken hepatocytes were isolated by perfusion of a liver with Ca^2+-free KRB buffer to remove blood cells, and being digested with 0.25% collagenase-I for 10 min. Hepatocytes were obtained following filtering and washing using M199 medium. Then the hepatocytes were plated in a Corning CellBIND 48-well microplate (Corning, NY, cat. no.3338) with M199 medium containing 100 U/ml penicillin and […] streptomycin (Gibco), 5 μg/ml bovine insulin (Sigma), and 5% FBS at 37°C in a 5% CO2 atmosphere. To adhere to the wall, the cells were incubated on the 48-well plate for 4 h.
(§2) For quantitative real-time PCR, primary cultured chicken hepatocytes were treated with various concentrations of ACTH1-39 (or other composition) at 37°C for 6 h. The relative amount of mRNA was calculated using the comparative Ct method. Chicken β-actin gene was used as the reference gene. Amplification of specific transcripts was confirmed by analyzing the melting curve profile performed at the end of each run and by determining the size of the PCR products using agarose electrophoresis and ethidium bromide staining.

[2] = system: primary chicken hepatocytes; assay: Triglyceride content, primary chicken hepatocytes; type: cell-based; settings: 24 h, normalized to protein, Figure 7E
Protocol: as §1
For measurement of triglyceride content, after treated with ACTH1-39 for 24 h, hepatocytes were harvested and triglyceride (TG) content was analyzed using a commercial triglyceride content assay kit (Applygen, Beijing, China, catalog no. E1013). Results were normalized to the protein content of each sample, as determined using a BCA assay kit (Beyotime Institute of Biotechnology, China, catalog no. P0010).

[3] = system: chicken MC3R; parameters: method as in Zhang et al., 2017; Thomas et al., 2018; settings: ref Zhang et al., 2017; Thomas et al., 2018; cited from earlier work
[4] = system: SCD mRNA, primary chicken hepatocytes; assay: SCD mRNA in primary chicken hepatocytes, RT-qPCR; type: cell-based; settings: 0.1–100 nM, 6 h, N = 4, Figure 8I, listed as not decreased
Protocol: as §1, §2

[5] = system: 7-day chickens; settings: continuous administration through mini-osmotic pumps, ref Puvadolpirod and Thaxton, 2000a; cited from earlier work
Description: Early studies have tested the effect of continuous ACTH administration in 7-day chickens ([Puvadolpirod and Thaxton, 2000a]; [Puvadolpirod and Thaxton, 2000b]; [Puvadolpirod and Thaxton, 2000c]; [Puvadolpirod and Thaxton, 2000d]; [Thaxton and Puvadolpirod, 2000]). […] A series of effects of ACT ...

[6] = system: THRSPA mRNA, primary chicken hepatocytes; assay: THRSPA mRNA in primary chicken hepatocytes, RT-qPCR; type: cell-based; settings: 6 h, N = 4, Figures 8D-F
Protocol: as §1, §2

[7] = system: primary chicken hepatocytes; assay: Lipid quantification by Oil Red O staining, primary cultured chicken hepatocytes; type: cell-based; settings: 24 h; OD at 540 nm of isopropanol extract; N = 6; Figures 7C–D
Protocol: as §1
For lipid quantification by Oil Red O staining, after treatment with ACTH1-39 for 24 h, primary cultured chicken hepatocytes were washed with PBS and then fixed with 4% paraformaldehyde for 30 min. After PBS washing, the Oil Red O working solution was added to stain for 30 min. The stained lipids were then visualized by light microscopy after washing in PBS. To quantify the lipid content, the Oil Red O stained in the cells was extracted with isopropanol by measuring the OD value at 540 nm.

[8] = system: ACACA mRNA, primary chicken hepatocytes; assay: ACACA mRNA in primary chicken hepatocytes, RT-qPCR; type: cell-based; settings: 0.1–100 nM, 6 h, N = 4, Figure 8G, listed as not decreased
Protocol: as §1, §2

[9] = system: ELOVL6 mRNA, primary chicken hepatocytes; assay: ELOVL6 mRNA in primary chicken hepatocytes, RT-qPCR; type: cell-based; settings: 6 h, N = 4, Figures 8A-C
Protocol: as §1, §2

[10] = system: chicken MC4R; parameters: method as in Zhang et al., 2017; Thomas et al., 2018; settings: ref Zhang et al., 2017; Thomas et al., 2018; cited from earlier work
[11] = system: chicken MC1R; parameters: method as in Ling et al., 2003; Ling et al., 2004; Mundy, 2005; settings: ref Ling et al., 2003, 2004, Mundy, 2005; cited from earlier work
[12] = target: chicken MC5R + MRAP1 (Gallus gallus, UniProt O73671); assay: pGL3-CRE-luciferase reporter assay, CHO cells co-expressing MC5R and cMRAP1; type: cell-based; settings: for effect of MRAP1 co-expression on sensitivity of MC5R: vs MC5R expressed alone
Protocol: (§3) The expression plasmids encoding MC5R, MRAP1 and MRAP2 were established by cloning their entire open reading frame (ORF) into the pcDNA3.1 (+) expression vector (Invitrogen).
(§4) The cells were then transfected with a mixture containing 700 ng pGL3-CRE-Luciferase reporter construct, 200 ng of receptor expression plasmid (or empty pcDNA3.1 vector as a negative control), 20 ng of pRL-TK construct (containing a Renilla luciferase gene, used as an internal control), and 2 μl jetPRIME transfection reagent (Polyplus Transfection, Illkirch, France) in 200 μL buffer. […] After removal of the medium from the 96-well plate, the cells were treated with 100 μl ligand-containing medium (or ligand-free medium) for 6 h. Finally, CHO cells were lysed with 1 × passive lysis buffer for luciferase assay (Promega) and the luciferase activity of the cell lysate was measured by a Multimode Microplate Reader (TriStar LB941, EG&G Berthold, Germany) according to the manufacturer’s instruction.
(§5) All statistical analysis was performed using GraphPad Prism 9 (Graph Pad Software Inc., San Diego, CA). The dose-response curves were constructed using nonlinear regression models. Student’s test was used to compare two groups, for more than two groups one-way ANOVA was performed followed by Dunnett’s test. To validate our results, all in-vitro experiments were repeated three times, and representative data are reported.

[13] = target: chicken MC5R (Gallus gallus, UniProt O73671); assay: pGL3-CRE-luciferase reporter assay, CHO cells expressing chicken MC5R; type: cell-based; settings: for ability to activate / sensitivity of cMC5R (in words, ranking): CHO cells expressing cMC5R
Description: All chemicals were purchased from Sigma-Aldrich (St. Louis, MO, United States) and the restriction enzymes were obtained from TaKaRa (Dalian, China). […] All primers used in this study were synthesized by Beijing Genome Institute (BGI, China) and listed in Supplementary Table 1.
as §3, §4, §5

Chain of chicken MC5R + MRAP1 (O73671 1-325): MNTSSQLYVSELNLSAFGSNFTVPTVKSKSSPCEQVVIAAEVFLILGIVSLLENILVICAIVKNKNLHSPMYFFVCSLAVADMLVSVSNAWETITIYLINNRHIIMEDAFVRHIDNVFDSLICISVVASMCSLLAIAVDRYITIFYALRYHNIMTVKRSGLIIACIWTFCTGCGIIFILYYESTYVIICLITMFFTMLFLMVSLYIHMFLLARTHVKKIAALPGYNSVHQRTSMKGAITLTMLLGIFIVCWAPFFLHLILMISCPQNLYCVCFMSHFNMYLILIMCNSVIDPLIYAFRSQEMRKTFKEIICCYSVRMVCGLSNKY
Chain of chicken MC5R (O73671 1-325): as above

## H-SYSMEHFRWGKPVGRKRRPIKVYPNGVDEESAESYPMEF-OH [ACTH1-39]
[1]
  FASN mRNA expression: instead of ACACA, FASN and SCD
[2]
  triglyceride (TG) contents: decreased triglyceride contents
[2]; listed as ACTH
  triglyceride (TG) contents: prominently decreased triglyceride (TG) contents
[3]
  activation of chicken MC3R: activated by both α-MSH and ACTH
[4]
  SCD mRNA expression: instead of ACACA, FASN and SCD
[5]
  plasma corticosterone: a fast rise in plasma corticosterone
  plasma glucose and relative liver weight: an increase in plasma glucose and relative liver weight
[6]
  THRSPA mRNA expression: dose-dependently decreased
[7]
  lipid contents (Oil Red O staining): lipid contents were lower in the ACTH-treat group in a dose-dependent manner
[8]
  ACACA mRNA expression: instead of ACACA, FASN and SCD
[9]
  ELOVL6 mRNA expression: dose-dependently decreased
[10]
  activation of chicken MC4R: activated by both α-MSH and ACTH
[11]
  MC1R response: promoting intracellular cAMP accumulation
[12]; Table 1 / Figure 3, co-expressed with cMRAP1, 6 h, pGL3-CRE-luciferase, mean ± SEM of at least three independent experiments (figure: four replicates)
  EC50: 2.12 ± 0.37 nM
[12]
  effect of MRAP1 co-expression on sensitivity of MC5R: did not affect the sensitivity of cMC5R to ACTH1-39
[12]; listed as ACTH
  effect of MRAP1 co-expression on sensitivity of MC5R: no effect on the sensitivity of chicken MC5R for ACTH
[13]
  ability to activate / sensitivity of cMC5R (in words, ranking): ACTH1-39 ≈ α-MSH > β-MSH > γ-MSH
[13]; listed as ACTH
  ability to activate / sensitivity of cMC5R (in words, ranking): highest potency to activate cMC5R
[13]; Table 1 / Figure 3, CHO cells, MC5R alone, 6 h, mean ± SEM of at least three independent experiments (figure: four replicates), read-out: EC50, MC5R expressed alone
  EC50: 5.91 ± 1.18 nM
